The text below walks through data of US20230364070A1, “PYRROLO[3,2-C]PYRIDIN-4-ONE DERIVATIVES USEFUL IN THE TREATMENT OF CANCER” (Scorpion Therapeutics, Inc., priority 2020, published 2023).

Holding throughout (assay type): cell-based
For test [1], the target named is T1, Ba/F3 cells with EGFR exon 20 ASV Ins V769_D770 (Homo sapiens, UniProt P00533, INS769ASV).
T1 construct: expressed in transfected cells; host or cells: Ba/F3 (murine pro-B cells), retroviral transduction, puromycin selection, IL3-independent pool
Put plainly: EGFR activity: Ba/F3 cell viability (CellTiter-Glo, 72 h), EGFR exon 20 ASV insertion. The note with it: EGFR exon 20 ASV Ins V769_D770, cell viability, read-out: BaF3 ASV IC50. In general terms: ATP-based viability assays read luminescence as a measure of living cells.

Another test deals with T2, Ba/F3 cells with EGFR WT (Homo sapiens, UniProt P00533).
T2 construct: expressed in transfected cells; host or cells: Ba/F3 (murine pro-B cells), retroviral transduction, puromycin selection, maintained with EGF
Put plainly: EGFR activity: Ba/F3 cell viability (CellTiter-Glo, 72 h), EGFR WT. The note with it: read-out: BaF3 WT IC50.

Test [2] concerns the target T3, pEGFR in Ba/F3 cells expressing EGFR exon 20 NPG Ins D770_N771 (Homo sapiens, UniProt P00533, INS770NPG).
T3 construct: expressed in transfected cells; host or cells: Ba/F3 (murine pro-B cells), retroviral transduction, puromycin selection, IL3-independent pool
Put plainly: Inhibitor activity on EGFR phosphorylation (pEGFR AlphaLISA, 2 h), Ba/F3 EGFR exon 20 NPG insertion. The note with it: Ba/F3 EGFR exon 20 NPG Ins D770_N771.

The target of test [3] is T4, pEGFR in Ba/F3 cells expressing EGFR exon 20 ASV Ins V769_D770 (Homo sapiens, UniProt P00533, INS769ASV).
T4 construct: expressed in transfected cells; host or cells: Ba/F3 (murine pro-B cells), retroviral transduction, puromycin selection, IL3-independent pool
T4 sequence (P00533 with tags, fused parts or gaps INS769ASV): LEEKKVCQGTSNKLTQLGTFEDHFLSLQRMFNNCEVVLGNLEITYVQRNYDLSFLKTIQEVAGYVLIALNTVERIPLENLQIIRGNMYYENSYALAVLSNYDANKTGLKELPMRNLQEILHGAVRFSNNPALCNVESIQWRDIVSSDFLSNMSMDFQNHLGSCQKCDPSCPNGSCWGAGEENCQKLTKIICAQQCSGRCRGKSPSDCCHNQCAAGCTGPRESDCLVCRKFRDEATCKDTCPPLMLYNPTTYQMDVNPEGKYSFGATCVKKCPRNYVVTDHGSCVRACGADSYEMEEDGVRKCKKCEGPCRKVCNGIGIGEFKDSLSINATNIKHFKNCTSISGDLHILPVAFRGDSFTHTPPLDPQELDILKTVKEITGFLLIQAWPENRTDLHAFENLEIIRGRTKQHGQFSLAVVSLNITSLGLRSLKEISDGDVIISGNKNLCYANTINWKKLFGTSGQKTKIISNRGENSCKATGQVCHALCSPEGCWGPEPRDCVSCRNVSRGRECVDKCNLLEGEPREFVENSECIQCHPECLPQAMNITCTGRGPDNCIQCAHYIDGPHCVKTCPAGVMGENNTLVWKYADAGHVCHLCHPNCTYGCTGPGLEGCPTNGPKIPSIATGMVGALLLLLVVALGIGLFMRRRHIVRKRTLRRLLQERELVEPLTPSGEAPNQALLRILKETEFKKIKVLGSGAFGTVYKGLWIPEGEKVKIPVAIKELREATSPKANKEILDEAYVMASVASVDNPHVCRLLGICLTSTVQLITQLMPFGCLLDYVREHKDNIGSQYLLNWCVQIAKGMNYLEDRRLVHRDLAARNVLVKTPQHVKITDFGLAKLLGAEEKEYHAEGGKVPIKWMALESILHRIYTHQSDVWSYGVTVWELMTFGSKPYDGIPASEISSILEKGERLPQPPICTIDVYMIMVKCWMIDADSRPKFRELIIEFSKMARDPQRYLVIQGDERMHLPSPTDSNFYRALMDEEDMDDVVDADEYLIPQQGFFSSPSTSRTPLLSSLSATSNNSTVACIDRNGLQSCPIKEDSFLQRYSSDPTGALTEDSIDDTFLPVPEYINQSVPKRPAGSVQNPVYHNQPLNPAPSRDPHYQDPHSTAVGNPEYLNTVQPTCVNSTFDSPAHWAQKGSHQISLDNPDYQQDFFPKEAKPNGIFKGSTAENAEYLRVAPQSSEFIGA
Put plainly: Inhibitor activity on EGFR phosphorylation (pEGFR AlphaLISA, 2 h), Ba/F3 EGFR exon 20 ASV insertion. The note with it: Ba/F3 EGFR exon 20 ASV Ins V769_D770.

The target of test [4] is T5, Ba/F3 cells with EGFR exon 20 NPG Ins D770_N771 (Homo sapiens, UniProt P00533, INS770NPG).
T5 construct: expressed in transfected cells; host or cells: Ba/F3 (murine pro-B cells), retroviral transduction, puromycin selection, IL3-independent pool
T5 sequence (P00533 with tags, fused parts or gaps INS770NPG): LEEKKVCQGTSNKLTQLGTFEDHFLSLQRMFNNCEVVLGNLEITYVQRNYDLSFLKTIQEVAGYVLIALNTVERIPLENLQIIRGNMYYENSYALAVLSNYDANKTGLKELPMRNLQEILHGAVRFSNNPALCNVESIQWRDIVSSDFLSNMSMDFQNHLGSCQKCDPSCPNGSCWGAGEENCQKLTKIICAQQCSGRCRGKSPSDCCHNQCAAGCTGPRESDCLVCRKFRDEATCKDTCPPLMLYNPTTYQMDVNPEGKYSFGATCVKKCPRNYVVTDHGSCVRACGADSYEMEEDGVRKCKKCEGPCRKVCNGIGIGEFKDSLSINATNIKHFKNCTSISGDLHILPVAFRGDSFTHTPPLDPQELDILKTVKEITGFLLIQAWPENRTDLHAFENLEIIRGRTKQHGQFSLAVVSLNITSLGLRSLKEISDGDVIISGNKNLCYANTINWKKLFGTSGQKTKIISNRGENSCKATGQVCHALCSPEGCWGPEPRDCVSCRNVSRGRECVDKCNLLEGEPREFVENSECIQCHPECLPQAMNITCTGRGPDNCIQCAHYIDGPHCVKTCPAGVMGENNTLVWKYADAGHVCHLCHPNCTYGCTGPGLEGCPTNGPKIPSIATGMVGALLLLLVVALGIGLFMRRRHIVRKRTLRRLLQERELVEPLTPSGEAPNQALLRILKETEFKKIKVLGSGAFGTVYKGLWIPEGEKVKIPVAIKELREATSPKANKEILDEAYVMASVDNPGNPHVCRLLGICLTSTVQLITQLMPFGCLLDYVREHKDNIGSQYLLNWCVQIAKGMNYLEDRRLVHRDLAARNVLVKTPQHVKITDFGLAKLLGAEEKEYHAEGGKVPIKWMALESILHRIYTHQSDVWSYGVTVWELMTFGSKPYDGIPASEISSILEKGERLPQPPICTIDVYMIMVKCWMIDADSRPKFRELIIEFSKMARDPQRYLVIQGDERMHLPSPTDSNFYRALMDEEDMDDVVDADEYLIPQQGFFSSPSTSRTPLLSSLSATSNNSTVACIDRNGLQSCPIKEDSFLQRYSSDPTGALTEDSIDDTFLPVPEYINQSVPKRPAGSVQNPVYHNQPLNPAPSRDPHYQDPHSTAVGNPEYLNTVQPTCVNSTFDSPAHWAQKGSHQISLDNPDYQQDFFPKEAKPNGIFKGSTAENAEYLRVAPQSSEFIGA
Put plainly: EGFR activity: Ba/F3 cell viability (CellTiter-Glo, 72 h), EGFR exon 20 NPG insertion. The note with it: EGFR exon 20 NPG Ins D770_N771, cell viability, read-out: BaF3 NPG IC50.

A further test has as its target T6, pEGFR in CUTO14 cells (Homo sapiens, UniProt P00533, DUP767-769).
T6 construct: endogenous in cells; host or cells: CUTO14 cells
Put plainly: Inhibitor activity on EGFR phosphorylation (pEGFR AlphaLISA, 2 h), CUTO14 cells. As for the experimental part: CUTO14 cells were obtained from Dr. Robert C. Doebele at the University of Colorado.
Shake 350 rpm for 1 hr in the dark • 3.4 Prepare donor mix under low light conditions prior to use. Dispense 5 μL of donor mix to all the wells. Mix well on the shaker, seal and wrap in aluminum foil and incubate 1.5 hrs at room temperature in the dark • 3.5 Transfer 18.5 μL mixture to OptiPlate 384, and read using an Envision.
On the technique in general: Bead proximity is the source of the signal in Alpha formats.

T3 sequence (P00533 with tags, fused parts or gaps INS770NPG): as above
T6 sequence (P00533 with tags, fused parts or gaps DUP767-769): as the sequence (P00533 with tags, fused parts or gaps INS769ASV) above

For `C=CC(=O)N1CC[C@@H]1COc1cnccc1-c1[nH]c2c(c1Nc1cccc(Cl)c1OC)C(=O)NCC2` [Compound 145a, (R)-2-(3-((1-acryloylazetidin-2-yl)methoxy)pyridin-4-yl)-3-((3-chloro-2-methoxyphenyl)amino)-1,5,6,7-tetrahydro-4H-pyrrolo[3,2-c]pyridin-4-one], the IC50 (as a rule, the concentration that gives 50% inhibition) in test [1] was less than 100 nM; at Ba/F3 cells with EGFR WT, 100 to 1000 nM; in test [2] it was less than 100 nM; in test [3], less than 100 nM; in test [4], less than 100 nM; against pEGFR in CUTO14 cells it was less than 100 nM.

`C=CC(=O)N1CCC[C@@H]1C#Cc1cnccc1-c1[nH]c2c(c1Nc1cccc(F)c1OC)C(=O)NCC2` [Compound 147b, (R)-2-(3-((1-acryloylpyrrolidin-2-yl)ethynyl)pyridin-4-yl)-3-((3-fluoro-2-methoxyphenyl)amino)-1,5,6,7-tetrahydro-4H-pyrrolo[3,2-c]pyridin-4-one]: the IC50 in test [1] is less than 100 nM; on Ba/F3 cells with EGFR WT, 100 to 1000 nM; in test [2], less than 100 nM; in test [3], less than 100 nM; in test [4], less than 100 nM; at pEGFR in CUTO14 cells, less than 100 nM.

As for `C=CC(=O)N1CCC[C@H]1C#Cc1cnccc1-c1[nH]c2c(c1Nc1cccc(F)c1OC)C(=O)NCC2` [Compound 147a, (S)-2-(3-((1-acryloylpyrrolidin-2-yl)ethynyl)pyridin-4-yl)-3-((3-fluoro-2-methoxyphenyl)amino)-1,5,6,7-tetrahydro-4H-pyrrolo[3,2-c]pyridin-4-one], the half-maximal inhibitory concentration (IC50) (in test [1]; at Ba/F3 cells with EGFR WT; in test [2]; in test [3]; in test [4]; against pEGFR in CUTO14 cells) was less than 100 nM throughout.

As to `C=CC(=O)N1CC[C@H]1COc1cnccc1-c1[nH]c2c(c1Nc1cccc(Cl)c1OC)C(=O)NCC2` [145b, 3-[(3-chloro-2-methoxyphenyl)amino]-2-(3-[[(2S)-1-(prop-2-enoyl)azetidin-2-yl]methoxy]pyridin-4-yl)-1H,5H,6H,7H-pyrrolo[3,2-c]pyridin-4-one], the IC50 (in test [2]; in test [3]; on pEGFR in CUTO14 cells) was less than 100 nM each time.

Turning to `C=CC(=O)N1CC(F)(F)C[C@@H]1C#Cc1cnccc1-c1[nH]c2c(c1Nc1cccc(Cl)c1OC)C(=O)NCC2` [compound 519, 3-[(3-chloro-2-methoxyphenyl)amino]-2-(3-[2-[(2R)-4,4-difluoro-1-(prop-2-enoyl)pyrrolidin-2-yl]ethynyl]pyridin-4-yl)-1H,5H,6H,7H-pyrrolo[3,2-c]pyridin-4-one], the IC50 (in test [2]; in test [3]; against pEGFR in CUTO14 cells) was less than 100 nM each time.

On to `C=CC(=O)NC1(C#Cc2cnccc2-c2[nH]c3c(c2Nc2cccc(Cl)c2OC)C(=O)NCC3)CC1` [compound 207, N-{1-[2-(4-{3-[(3-chloro-2-methoxyphenyl)amino]-4-oxo-1H,5H,6H,7H-pyrrolo[3,2-c]pyridin-2-yl}pyridin-3-yl)ethynyl]cyclopropyl}prop-2-enamide], for which the IC50 (in test [2]; in test [3]; on pEGFR in CUTO14 cells) was less than 100 nM each time.

For the molecule `COc1c(Cl)cccc1Nc1c(-c2ccncc2C#CC2(C(F)F)CC2)[nH]c2c1C(=O)NCC2` [compound 546], the IC50 in test [1] is less than 100 nM; on Ba/F3 cells with EGFR WT it was 100 to 1000 nM; in test [2], less than 100 nM; in test [3], less than 100 nM; in test [4], less than 100 nM; against pEGFR in CUTO14 cells it was less than 100 nM.

For the molecule `C=CC(=O)N1CCC[C@@H]1COc1cnccc1-c1[nH]c2c(c1Nc1cccc(F)c1C)C(=O)NCC2` [Compound 140, (R)-2-(3-((1-acryloylpyrrolidin-2-yl)methoxy)pyridin-4-yl)-3-((3-fluoro-2-methylphenyl)amino)-1,5,6,7-tetrahydro-4H-pyrrolo[3,2-c]pyridin-4-one], the IC50 is less than 100 nM in test [1]; 100 to 1000 nM at Ba/F3 cells with EGFR WT; less than 100 nM in test [2]; less than 100 nM in test [3]; less than 100 nM in test [4]; less than 100 nM against pEGFR in CUTO14 cells.

As for `C=CC(=O)N1CCC[C@H]1COc1cnccc1-c1[nH]c2c(c1Nc1cccc(F)c1C)C(=O)NCC2` [Compound 467, 3-[(3-fluoro-2-methylphenyl)amino]-2-(3-[[(2S)-1-(prop-2-enoyl)pyrrolidin-2-yl]methoxy]pyridin-4-yl)-1H,5H,6H,7H-pyrrolo[3,2-c]pyridin-4-one], the concentration for half-maximal inhibition (IC50) (in test [1]; at Ba/F3 cells with EGFR WT; in test [2]; in test [3]; in test [4]; against pEGFR in CUTO14 cells) was less than 100 nM in each case.

For `COc1c(F)cccc1Nc1c(-c2ccncc2OCC2CCn3ccnc32)[nH]c2c1C(=O)NCC2` (centres unmarked) [Compound 124, 3-[(3-fluoro-2-methoxyphenyl)amino]-2-(3-[5H,6H,7H-pyrrolo[1,2-a]imidazol-7-ylmethoxy]pyridin-4-yl)-1H,5H,6H,7H-pyrrolo[3,2-c]pyridin-4-one], the half-maximal inhibitory concentration (IC50) in test [1] is 100 to 1000 nM; on Ba/F3 cells with EGFR WT it was greater than 1000 nM; in test [2] it was less than 100 nM; in test [3] it was 100 to 1000 nM; in test [4] it was greater than 1000 nM.

As for `COc1c(Cl)cccc1Nc1c(-c2ccncc2C#CC2(C(F)(F)F)CC2)[nH]c2c1C(=O)NCC2` [compound 528, 3-[(3-chloro-2-methoxyphenyl)amino]-2-(3-[2-[1-(trifluoromethyl)cyclopropyl]ethynyl]pyridin-4-yl)-1H,5H,6H,7H-pyrrolo[3,2-c]pyridin-4-one], the concentration for half-maximal inhibition (IC50) (in test [2]; in test [3]; against pEGFR in CUTO14 cells) was less than 100 nM in each case.
